Reference: article PMC11149917, “Translational and Therapeutic Evaluation of RAS-GTP Inhibition by RMC-6236 in RAS-Driven Cancers” (Cancer Discovery, 2024)

How the values were obtained:
[1] = test system: NCI-H1373-Luc intracranial xenograft; experiment: Intracranial tumor model (bioluminescence); assay type: in vivo, mouse; conditions: 25 mg/kg daily oral, 28 days
Description: (§1) LU99 cells (JCRB0080) were stably modified with lentivirus-based pHBLV-CMV-MCS-EF1-fLuc-T2A-puro vector to generate luciferase-expressing LU99-Luc cells. NCI-H1373 cells (ATCC CRL-5866) were stably modified with lentivirus-based pHBLV-CMV-MCS-EF1-fluc-T2A-PURO vector to generate luciferase-expressing NCI-H1373-Luc cells. The eCT26 Kras^G12C^/G12CAbcb1^−^/^− (clone I20) and eCT26 Kras^G12D^/G12DAbcb1^−^/^− (clone I12) cell lines were engineered from the murine CT26 homozygous Kras^G12D tumor cell line (ATCC CRL-2638). All Kras^G12D alleles were replaced with Kras^G12C using CRISPR technology at Synthego. Additionally, the P-glycoprotein drug transporter, Abcb1a and Abcb1b, were knocked out using CRISPR guide sequences […] and […], respectively. The homozygous G12C mutation and the Abcb1 knockout were confirmed by Sanger sequencing in the clone selected and were used for in vivo experiments.
(§2) NCI-H1373-Luc cells (3 × 10^5) were prepared in 3 µL sterile PBS with 20% Matrigel. Each mouse was anesthetized by intraperitoneal (ip) injection of sterile avertin (250 mg/kg) and positioned on the stereotaxic unit. Cells were intracranially injected over 2 minutes at the site 2 mm lateral (right), 0.5 mm anterior, and 3 mm ventral with respect to the bregma. […] The bioluminescence and animal weights were measured and recorded once and twice per week, respectively. […]

[2] = test system: LU99-Luc (KRAS^G12C/WT, NSCLC) intracranial xenograft; experiment: Intracranial tumor model (bioluminescence); assay type: in vivo, mouse; conditions: 25 mg/kg daily oral, 21 days
Description: as §1, §2

For `CCn1c(-c2cc(N3CCN(C)CC3)cnc2[C@H](C)OC)c2c3cc(ccc31)-c1csc(n1)C[C@H](NC(=O)[C@H]1C[C@@H]1C)C(=O)N1CCC[C@H](N1)C(=O)OCC(C)(C)C2` [RMC-6236], the “tumor response by bioluminescent signal” value [1] was “tumor regressions” and the “tumor response by bioluminescent signal” value [2] was “tumor regressions”.
